Patent US10472663B2, “Procedure for the rapid determination of bacterial susceptibility to antibiotics that inhibit protein synthesis” (ABM TECHNOLOGIES, LLC, priority 2015, dated 2019)

How the values were obtained:
Assay type in all cases: cell-based
Escherichia coli [1] = experiment: Micromax assay of ciprofloxacin-induced DNA fragmentation after a protein synthesis inhibitor (Example 1)
Method: As an exemplification of the principals previously described, two strains of Escherichia coli exponentially growing in Mueller-Hinton broth were assayed (FIGS. 1-6). The first strain of Escherichia coli was a TG1 strain susceptible to both the aminoglycoside tobramycin (an inhibitor of protein synthesis) and the quinolone ciprofloxacin (an agent which induces DNA fragmentation by trapping of topoisomerases in DNA) (FIGS. 1-3). The second strain was a clinical isolate resistant to tobramycin and susceptible to ciprofloxacin (FIGS. 4-6). Four treatments were applied to each strain to rapidly distinguish the susceptible and the resistant strain to tobramycin.
One portion of both bacterial strains was incubated with tobramycin at 4 μg/ml for 40 minutes (FIGS. 1 and 4), a dosage indicated by the CLSI as the breakpoint of susceptibility to tobramycin in the standard antibiogram based on microdilution. Another portion of both strains was incubated with ciprofloxacin at 1 μg/ml for 30 min (FIGS. 2 and 5). Still another portion of both strains was incubated with tobramycin at 4 μg/ml for 10 min followed by ciprofloxacin at 1 μg/ml for 30 min, without removing the tobramycin (FIGS. 3 and 6). A final portion was left with no antibiotic.
After each incubation cells were processed using the variant of the Micromax technology to visualize the nucleoids, i.e. bacterial chromosomal DNA, in all the cells of the population. Cells from each culture were immersed in an agarose microgel on a slide and incubated with a specific lysing solution to remove the cell wall in all the cells and release in the microgel the nucleoids contained inside the bacteria. These are dried, stained with a high sensitive fluorochrome for DNA like SYBR Gold and visualized under fluorescence microscopy. FIGS. 1-6 depicts representative images captured under each of the conditions described below.
The above described methodology was employed to rapidly determine the susceptibility of 12 strains of E. coli to tobramycin. One portion of each bacterial strain was incubated with tobramycin at the susceptibility breakpoint dosage, 4 μg/ml, for 40 min. A portion of each strain was incubated with ciprofloxacin at 1 μg/ml for 30 min. Still another portion of each strain was incubated with tobramycin at 4 μg/ml for 10 min followed by ciprofloxacin at 1 μg/ml for 30 min, without removing the tobramycin. A final portion of each strain was left with no antibiotic. E. coli strains were identified as susceptible or not based on the levels of DNA fragmentation in the portion of each strain incubated with ciprofloxacin and the portion incubated with tobramycin and ciprofloxacin.
The principals exemplified in Example 1 were confirmed with the aminoglycoside amikacin. Briefly, a susceptible and resistant strain of E. coli were exposed to similar conditions to those described in Example 1, except that amikacin was utilized as the protein synthesis inhibiting antibiotic. Specifically, each was strain subjected to four treatments. One portion received no antibiotics, and another portion received only a quinolone, such as ciprofloxacin or norfloxacin to induce DNA fragmentation. Still another portion received the protein synthesis inhibiting antibiotic aminoglycoside amikacin, followed by the quinolone. Another portion received only amikacin. A final portion received neither antibiotic.
The principals exemplified in Example 1 were further confirmed with the aminoglycoside gentamicin. Briefly, the rapid test was performed on 15 isolated E. coli strains according to the methodology described above, except that gentamicinin was utilized as the protein synthesis inhibiting antibiotic. Suppressed DNA fragmentation were used to characterize bacterial susceptibility and those characterizations were verified with the standard antibiogram for gentamicin by microdilution. […]

Pseudomonas aeruginosa [2] = experiment: Variant Micromax assay of cell enlargement by ceftazidime after tobramycin (Example 7); conditions: ceftazidime alone 0.5 μg/ml 60 minutes; both strains
Method: As an example, two strains of Pseudomonas aeruginosa exponentially growing in Mueller-Hinton broth were assayed. These strains were both susceptible to the β-lactam ceftazidime, which inhibits peptidoglycan synthesis. One strain was susceptible and the other resistant to the aminoglycoside tobramycin (an inhibitor of protein synthesis). For the purpose of rapidly distinguishing the susceptible and the resistant strain to tobramycin each strain was subjected to four treatments.
A portion of each strain was incubated with tobramycin at 4 μg/ml (the CLSI breakpoint of susceptibility) for 75 minutes. An assay of this portion is depicted at FIGS. 31 and 34. Another portion of each strain was incubated with ceftazidime at 0.5 μg/ml for 60 minutes. An assay of this portion is depicted at FIGS. 32 and 35. Still another portion of both strains was incubated with tobramycin at 4 μg/ml for 15 minutes followed by ceftazidime at 0.5 μg/ml for 60 minutes, without removing the tobramycin. Assays of these strains can be seen at FIGS. 33 and 36, respectively. A final portion of each strain was not treated with either antibiotic.
After incubation with the antibiotics, cells were processed using a variant Micromax technology to visualize the enlargement or not of the bacteria. Samples from each culture were immersed in an agarose microgel on a slide, dried, stained with a high sensitive fluorochrome for DNA like SYBR Gold and visualized under fluorescence microscopy to visualize cell shape and size.

Enterococcus faecalis = experiment: Variant Micromax assay of cell lysis by lysozyme after erythromycin (Example 6)
Method: As an example, two strains of Enterococcus faecalis exponentially growing in Mueller-Hinton broth were incubated under four different conditions and then assayed. […] Each strain was subjected to four treatments for the purpose of rapidly distinguishing the susceptible and the resistant strain to erythromycin.
The dose was that indicated by the CLSI as the breakpoint of susceptibility to erythromycin in the standard antibiogram based on microdilution. Another portion of both strains was incubated with lysozyme 1 mg/ml, 10 min at 37° C. […]
(§1) After incubation with lysozyme, the cells were processed using a variant of the Micromax technology to visualize the nucleoids, i.e. spreading of the bacterial chromosomal DNA, in all the cells of the population. Samples from the cultures were immersed in an agarose microgel on a slide and incubated with a specific lysing solution to remove the cell wall in all the cells and release in the microgel the nucleoids contained inside the bacteria. These are dried, stained with a highly sensitive fluorochrome for DNA like SYBR Gold and visualized under fluorescence microscopy.

Pseudomonas aeruginosa [3] = experiment: Variant Micromax assay of cell wall damage by meropenem after tobramycin (Example 5); conditions: meropenem alone 0.2 μg/ml 60 min; both strains
Excerpt: As an exemplification of this principal, FIGS. 19-24 illustrates assays of two strains of Pseudomonas aeruginosa exponentially growing in Mueller-Hinton broth. Both strains were both susceptible to the β-lactam meropenem, which inhibits peptidoglycan synthesis. One strain was susceptible (FIGS. 19-21) and the other resistant (FIGS. 22-24) to the aminoglycoside tobramycin (inhibitor of protein synthesis).
For the purpose of rapidly distinguishing susceptible and resistant (i.e. non-susceptible) strains to tobramycin each strain was subjected to four treatments. A portion of each strain was incubated with tobramycin at 4 μg/ml for 75 min (FIGS. 19 and 22). The dose utilized, was indicated by the CLSI as the breakpoint of susceptibility to tobramycin. FIGS. 20 and 23 illustrate an assay from another portion of each strain, which was incubated with Meropenem at 0.2 μg/ml for 60 min. FIGS. 21 and 24, illustrate assays from still another portion of both strains which was incubated with tobramycin at 4 μg/ml for 15 min followed by meropenem at 0.2 μg/ml for 60 min, without removing the tobramycin. Still another portion of both strains was maintained without the addition of either antibiotic.
After incubation cells were processed using a variant Micromax technology to visualize the affectation or not of the cell wall based on the release or not of the nucleoids contained inside the bacteria. In the same manner described previously, samples from cells from the culture are immersed in an agarose microgel on a slide and incubated with a specific lysing solution that removes the cell wall only in those bacteria whose peptidoglycan was affected, thus releasing in the microgel the nucleoids contained inside. […] The processed bacteria in microgel are dried, stained with a high sensitive fluorochrome for DNA like SYBR Gold and visualized under fluorescence microscopy.

Escherichia coli [4] = experiment: Variant Micromax assay of cell enlargement by low-dose mitomycin C after tobramycin (Example 8); conditions: mitomycin C alone 0.5 μg/ml 60 minutes; both strains
Method: As an example, two strains of Escherichia coli exponentially growing in Mueller-Hinton broth were incubated under four different conditions and then assayed. One strain was susceptible and the other resistant to the aminoglycoside tobramycin (an inhibitor of protein synthesis). For the purpose of rapidly distinguishing susceptible and non-susceptible strains to tobramycin each strain was incubated under four conditions.
A portion of each strain was incubated with tobramycin at 4 μg/ml for 90 minutes. As described previously, this dose is indicated by the CLSI as the breakpoint of susceptibility to tobramycin in the standard antibiogram based on microdilution. Another portion of both strains was incubated in Mitomycin C at 0.5 μg/ml for 60 minutes. Still another portion of each strain was incubated with tobramycin at 4 μg/ml for 30 minutes followed by mitomycin C at 0.5 μg/ml for 60 minutes, without removing the tobramycin. A final portion of both strains was not incubated with either antibiotic.
After the incubation, cells were processed using a variant Micromax technology to visualize any enlargement or not of the bacteria. Samples from cells from the culture were immersed in an agarose microgel on a slide, dried, stained with a highly sensitive fluorochrome for DNA like SYBR Gold and visualized under fluorescence microscopy to visualize cell shape and size. Images were similar those correspondent to the previous figure.

Escherichia coli [5] = experiment: Micromax assay of mitomycin C-induced DNA fragmentation after tobramycin (Example 2); conditions: mitomycin C alone 50 μg/ml 60 min; both strains
Method: FIGS. 7-9 depict a TG1 strain susceptible to the aminoglycoside tobramycin, an inhibitor of protein synthesis, and mitomycin C, an agent which induces DNA damage. The other strain illustrated in FIGS. 10-12 was a clinical isolate resistant to tobramycin.
One portion of both bacterial strains was incubated with tobramycin at 4 μg/ml for 90 min (FIGS. 7 and 10), a dosage indicated by the CLSI as the breakpoint of susceptibility to tobramycin in the standard antibiogram based on microdilution. Another portion of both strains was incubated with mitomycin C at 50 μg/ml for 60 min (FIGS. 8 and 11). Still another portion of both strains was incubated with tobramycin at 4 μg/ml for 30 min followed by mitomycin C at 50 μg/ml for 60 min, without removing the tobramycin (FIGS. 9 and 12). A final portion was left with no antibiotic.
as §1, with “incubation,” for “incubation with lysozyme, the”, “visualize” for “visualize the”, “i.e.” for “i.e. spreading of the”, “from cells from” for “from”, “culture are” for “cultures were”, “microscopy, Nucleoids from E. coli obtained using the Micromax assay are represented in FIGS. 7-12, FIGS. 7-9 correspond to a strain susceptible to tobramycin (TG1) and FIGS. 10-12 to a strain resistant to tobramycin.” for “microscopy.”

Staphylococcus aureus = experiment: Micromax assay of DNA fragmentation by DNase released with lysostaphin after azithromycin (Example 3); conditions: lysostaphin alone 10 μg/ml 1 min; both strains
Method: In an exemplification of this principal, two strains of S. aureus growing in Mueller-Hinton agar with 5% sheep blood were assayed. One strain was susceptible to the macrolide azithromycin (an inhibitor of protein synthesis) (FIGS. 13-15) and the other strain was a clinical isolate resistant to azithromycin (FIGS. 16-18). The purpose was to rapidly distinguish susceptible and non-susceptible strains to azithromycin. Cultures were processed direct from standard growing agar plates 18-24 h and it was not necessary the cells being exponentially growing previously to the assay.
Each of these strain was subjected to four treatments. One portion of both strains was incubated with azithromycin at 2 μg/ml for 120 min; 2 μg/ml being indicated by the CLSI as the breakpoint of susceptibility to azithromycin. The cells were then lysed to release nucleoids and images of FIGS. 13 and 16 were generated. Another portion of each strain was incubated with lysostaphin at 10 μg/ml for 1 min. FIGS. 14 and 17 depict the nucleoids released in each strain for this treatment. Still another portion was incubated with Azithromycin at 2 μg/ml for 120 min followed by lysostaphin at 10 μg/ml for 1 min, without removing the azithromycin. The assays for these treatments can be seen at FIGS. 15 and 18. A final portion was left without either antibiotic.
After the incubation, the cells were processed using the variant of a Micromax technology to lyse cells with affected cell walls. As indicated previously, samples from cells from the culture are immersed in an agarose microgel on a slide and incubated with a specific lysing solution to remove the cell wall in those cells affected by lysostaphin and release in the microgel the nucleoids contained inside the bacteria. These are dried, stained with a highly sensitive fluorochrome for DNA like SYBR Gold and visualized under fluorescence microscopy.

[6] = rapid test, confirmed by microdilution antibiogram, 12 strains for tobramycin, 15 for gentamicin

NCC[C@H](O)C(=O)N[C@@H]1C[C@H](N)[C@@H](O[C@H]2O[C@H](CN)[C@@H](O)[C@H](O)[C@H]2O)[C@H](O)[C@H]1O[C@H]1O[C@H](CO)[C@@H](O)[C@H](N)[C@H]1O [amikacin]
outcome of rapid susceptibility test with another protein synthesis inhibitor (Escherichia coli [1]; inhibitor followed by a quinolone, susceptible and resistant E. coli): successfully determined

CC(C)(O/N=C(\C(=O)N[C@@H]1C(=O)N2C(C(=O)[O-])=C(C[n+]3ccccc3)CS[C@H]12)c1csc(N)n1)C(=O)O [ceftazidime]
cell enlargement (Pseudomonas aeruginosa [2]): significant cell enlargement

O=C(O)c1cn(C2CC2)c2cc(N3CCNCC3)c(F)cc2c1=O [ciprofloxacin]
inhibitory response on lysis by lysozyme (Enterococcus faecalis; incubation with quinolones instead of a protein synthesis inhibitor): has not been obtained | DNA fragmentation of nucleoids (Escherichia coli [1]; ciprofloxacin alone 1 μg/ml 30 min, both strains): nucleoids with extensive fragmented DNA

C[C@@H](O)[C@H]1C(=O)N2C(C(=O)O)=C(S[C@@H]3CN[C@H](C(=O)N(C)C)C3)[C@H](C)[C@H]12 [meropenem]
release of nucleoids (cell wall damage) (Pseudomonas aeruginosa [3]): releasing of nucleoids due to affectation of the cell wall

CO[C@@]12[C@H](COC(N)=O)C3=C(C(=O)C(C)=C(N)C3=O)N1C[C@@H]1N[C@@H]12 [mitomycin C]
cell enlargement (Escherichia coli [4]): significant cell enlargement | DNA fragmentation of nucleoids (Escherichia coli [5]): nucleoids with fragmented DNA in both strains

gentamicin
E. coli strains identified as non-susceptible (resistant) (Escherichia coli [1]; [6]): 5 | E. coli strains identified as susceptible (Escherichia coli [1]; [6]): 10

lysostaphin
DNA fragmentation of released nucleoids (Staphylococcus aureus): release of nucleoids with a large extent of DNA fragmentation

lysozyme
partially lysed cells with spreading nucleoid fibers (Enterococcus faecalis; lysozyme 1 mg/ml 10 min at 37° C. and lysing solution, no erythromycin, erythromycin-resistant strain): 97.36% | lysed cells releasing nucleoid fibers (Enterococcus faecalis; lysozyme 1 mg/ml 10 min at 37° C. and lysing solution, no erythromycin, erythromycin-susceptible strain): 92.13%
